Source: PMC3956373, “Suppression of type 1 pilus assembly in uropathogenic Escherichia coli by chemical inhibition of subunit polymerization” (Journal of Antimicrobial Chemotherapy, 2013)

Molecular target: T1, FimH (Escherichia coli, UniProt P08191)
T1 construct: with FimC (C-terminal His tag); FimG Nte peptide in the assay
Test: SDS-PAGE donor strand exchange assay with purified FimChis:FimH ([…]) and FimG Nte peptide ([…]), concentration-response
Format: biochemical

T1 sequence (P08191 22-300): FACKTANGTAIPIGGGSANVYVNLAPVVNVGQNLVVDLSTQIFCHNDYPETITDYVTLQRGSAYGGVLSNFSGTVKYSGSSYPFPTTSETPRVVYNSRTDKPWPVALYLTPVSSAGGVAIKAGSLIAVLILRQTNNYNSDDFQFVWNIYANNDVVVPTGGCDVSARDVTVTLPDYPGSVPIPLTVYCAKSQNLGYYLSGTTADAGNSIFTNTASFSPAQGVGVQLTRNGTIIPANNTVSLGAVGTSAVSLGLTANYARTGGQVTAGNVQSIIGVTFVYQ
T1 sequence (P31697 37-241, further chain): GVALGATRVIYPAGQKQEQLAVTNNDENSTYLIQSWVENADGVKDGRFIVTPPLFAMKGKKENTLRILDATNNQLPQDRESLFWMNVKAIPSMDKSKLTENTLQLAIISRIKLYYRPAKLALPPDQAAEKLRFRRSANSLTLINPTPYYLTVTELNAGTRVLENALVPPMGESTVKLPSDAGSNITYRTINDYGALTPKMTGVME
T1 sequence (P08190 24-167, further chain): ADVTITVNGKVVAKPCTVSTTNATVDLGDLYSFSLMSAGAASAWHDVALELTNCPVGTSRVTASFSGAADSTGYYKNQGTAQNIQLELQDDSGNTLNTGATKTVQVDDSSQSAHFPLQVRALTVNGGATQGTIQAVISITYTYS

O=C(CSc1nnc(-c2ccc(S(=O)(=O)N3CCCC3)cc2)o1)Nc1ccc(Cl)cc1 [AL1, N-(4-chloro-phenyl)-2-{5-[4-(pyrrolidine-1-sulfonyl)-phenyl]-[1,3,4]oxadiazol-2-ylsulfanyl}-acetamide]
IC50: 286 µM
